# Measured values published in US8765771B2, “Condensed pyridine or condensed pyrimidine derivative, and medicinal agent comprising same” (Kowa Co., Ltd., priority 2010, dated 2014).
# Test system: Hamster pancreatic β cell strain HIT-T15 cells
# Test: Action of promoting insulin secretion (Test Example 1)
# Format: cell-based
# Conditions: Mesocricetus auratus, glucose 2 mM, 1 hour at 37° C., insulin in the supernatant, 0.0001 μM to 10 μM, read-out: EC50 (50% effect concentration, insulin secretion)
# Description: Action of Promoting Insulin Secretion
# Hamster pancreatic β cell strain HIT-T15 cells were subcultured by using a Ham's F-12K culture medium containing penicillin (100 unit/mL), streptomycin (100 μg/mL) and 10% fetal bovine serum. The cells were sown on a 24-well cell culture plate, cultured at 37° C. for 48 hours, and washed with a 0.10 albumin KRBH buffer. Subsequently, the cells were allowed to stand in the same buffer at 37° C. for 1 hour. Glucose was added thereto so as to give a final concentration of 2 mM, and the compound of the present invention that had been dissolved in dimethylsulfoxide at a concentration of 1.000-fold of the respective concentrations (from 0.0001 μM to 10 μM at a common ratio of 10) was further added under a condition that the compound was included in an amount of 0.1 volume % in the buffer. After the addition of the compound of the present invention, the cells were allowed to stand at 37° C. for 1 hour, and the concentration of the insulin included in the supernatant was measured by an insulin kit (SCETI Medical Labo K. K.). A hamster insulin standard solution (SHIBAYAGI Co., Ltd.) was used as a standard solution. A control to which only dimethylsulfoxide had been added was used. The results are shown in Table 8 as the 50% effect concentrations (EC50 values, 50% effect concentrations)) of the respective subject compounds. The EC50 values were calculated by using a statistical analysis program, SAS Pre-Clinical Package Ver 5.0 (SAS institute Japan Co., Tokyo).
row,Structure (SMILES),EC50
1,"CC(C)(C)OC(=O)N1CCC(c2coc3c(Nc4ccc(S(C)(=O)=O)cc4F)ncnc23)CC1 [Example 1, Tert-Butyl 4-(4-{[2-fluoro-4-(methylsulfonyl)phenyl]amino}furo[3,2-d]pyrimidin-7-yl)piperidine-1-carboxylate]",5.3 nM
2,"CS(=O)(=O)c1ccc(Nc2ncnc3c(C4CCN(c5ncc(Cl)cn5)CC4)coc23)c(F)c1 [Example 2, 7-[1-(5-chloropyrimidin-2-yl)piperidin-4-yl]-N-[2-fluoro-4-(methylsulfonyl)phenyl]furo[3,2-d]pyrimidine-4-amine]",4 nM
3,"CCc1cnc(N2CCC(c3coc4c(Nc5ccc(S(C)(=O)=O)cc5F)ncnc34)CC2)nc1 [Example 3, 7-[1-(5-ethylpyrimidin-2-yl)piperidin-4-yl]-N-[2-fluoro-4-(methylsulfonyl)phenyl]furo[3,2-d]pyrimidine-4-amine]",14.3 nM
4,"CS(=O)(=O)c1ccc(Nc2ncnc3c(C4CCN(c5ncc(F)cn5)CC4)coc23)c(F)c1 [Example 4, N-[2-fluoro-4-(methylsulfonyl)phenyl]-7-[1-(5-fluoropyrimidin-2-yl)piperidin-4-yl]furo[3,2-d]pyrimidine-4-amine]",33.1 nM
5,"CS(=O)(=O)c1ccc(Nc2ncnc3c(C4CCN(c5ncc(Br)cn5)CC4)coc23)c(F)c1 [Example 5, 7-[1-(5-bromopyrimidin-2-yl)piperidin-4-yl]-N-[2-fluoro-4-(methylsulfonyl)phenyl]furo[3,2-d]pyrimidine-4-amine]",12.4 nM
6,"CS(=O)(=O)c1ccc(Nc2ncnc3c(C4CCN(c5ccc(C(F)(F)F)cn5)CC4)coc23)c(F)c1 [Example 6, N-[2-fluoro-4-(methylsulfonyl)phenyl]-7-{1-[5-(trifluoromethyl)pyridin-2-yl]piperidin-4-yl}furo[3,2-d]pyrimidine-4-amine]",20.5 nM
7,"CS(=O)(=O)c1ccc(Nc2ncnc3c(C4CCN(C(=O)OCc5ccccc5)CC4)coc23)c(F)c1 [Example 7, benzyl 4-(4-{[2-fluoro-4-(methylsulfonyl)phenyl]amino}furo[3,2-d]pyrimidin-7-yl)piperidine-1-carboxylate]",33.7 nM
8,"CC(C)OC(=O)N1CCC(c2coc3c(Nc4ccc(S(C)(=O)=O)cc4F)ncnc23)CC1 [Example 8, isopropyl 4-(4-{[2-fluoro-4-(methylsulfonyl)phenyl]amino}furo[3,2-d]pyrimidin-7-yl)piperidine-1-carboxylate]",83.5 nM
9,"CS(=O)(=O)c1ccc(Nc2ncnc3c(C4CCN(S(=O)(=O)C5CC5)CC4)coc23)c(F)c1 [Example 11, 7-[1-(cyclopropylsulfonyl)piperidin-4-yl]-N-[2-fluoro-4-(methylsulfonyl)phenyl]furo[3,2-d]pyrimidine-4-amine]",76.9 nM
10,"CS(=O)(=O)c1ccc(Nc2ncnc3c(C4CCN(S(=O)(=O)C5CCCCC5)CC4)coc23)c(F)c1 [Example 12, 7-[1-(cyclohexylsulfonyl)piperidin-4-yl]-N-[2-fluoro-4-(methylsulfonyl)phenyl]furo[3,2-d]pyrimidine-4-amine]",9.1 nM
11,"CC(C)(C)OC(=O)N1CCC(c2coc3c(Oc4ccc(S(C)(=O)=O)c(F)c4)ncnc23)CC1 [Example 21, tert-butyl 4-{4-[3-fluoro-4-(methylsulfonyl)phenoxy]furo[3,2,d]pyrimidin-7-yl}piperidine-1-carboxylate]",51.9 nM
12,"CC(C)(C)OC(=O)N1CCC(c2coc3c(N4CCc5cc(S(C)(=O)=O)ccc54)ncnc23)CC1 [Example 24, tert-butyl 4-{4-[5-(methylsulfonyl)indolin-1-yl]furo[3,2-d]pyrimidin-7-yl}piperidine-1-carboxylate]",3.6 nM
13,"CCc1cnc(N2CCC(c3coc4c(N5CCc6cc(S(C)(=O)=O)ccc65)ncnc34)CC2)nc1 [Example 25, 7-[1-(5-ethylpyrimidin-2-yl)piperidin-4-yl]-4-[5-(methylsulfonyl)indolin-1-yl]furo[3,2-d]pyrimidine]",16.4 nM
14,"CC(C)(C)OC(=O)N1CCC(c2csc3c(Nc4ccc(S(C)(=O)=O)cc4F)ncnc23)CC1 [Example 27, tert-butyl 4-(4-{[2-fluoro-4-(methylsulfonyl)phenyl]amino}thieno[3,2-d]pyrimidin-7-yl)piperidine-1-carboxylate]",50.7 nM
15,"CS(=O)(=O)c1ccc(Nc2ncnc3c(C4CCN(c5ncc(C(F)(F)F)cn5)CC4)coc23)c(F)c1 [Example 31, N-[2-fluoro-4-(methylsulfonyl)phenyl]-7-{1-[5-(trifluoromethyl)pyrimidin-2-yl]piperidin-4-yl}furo[3,2-d]pyrimidine-4-amine]",4.5 nM
16,"CC(C)(OC(=O)N1CCC(c2coc3c(Nc4ccc(S(C)(=O)=O)cc4F)ncnc23)CC1)C(F)(F)F [Example 33, 1,1,1-trifluoro-2-methylpropan-2-yl 4-(4-{[2-fluoro-4-(methylsulfonyl)phenyl]amino}furo[3,2-d]pyrimidin-7-yl)piperidine-1-carboxylate]",15.1 nM
17,"CC(C)(C)COC(=O)N1CCC(c2coc3c(Nc4ccc(S(C)(=O)=O)cc4F)ncnc23)CC1 [Example 35, neopentyl 4-(4-{[2-fluoro-4-(methylsulfonyl)phenyl]amino}furo[3,2-d]pyrimidin-7-yl)piperidine-1-carboxylate]",58.4 nM
18,"CS(=O)(=O)c1ccc(Nc2ncnc3c(C4CCN(C(=O)OCC(Cl)(Cl)Cl)CC4)coc23)c(F)c1 [Example 36, 2,2,2-trichloroethyl 4-(4-{[2-fluoro-4-(methylsulfonyl)phenyl]amino}furo[3,2-d]pyrimidin-7-yl)piperidine-1-carboxylate]",18.7 nM
19,"CS(=O)(=O)c1ccc(Nc2ncnc3c(C4CCN(C(=O)Oc5ccccc5)CC4)coc23)c(F)c1 [Example 37, phenyl 4-(4-{[2-fluoro-4-(methylsulfonyl)phenyl]amino}furo[3,2-d]pyrimidin-7-yl)piperidine-1-carboxylate]",56.2 nM
20,"CC(C)(C)OC(=O)N1CCC(c2coc3c(Oc4ccc(S(C)(=O)=O)cc4)ncnc23)CC1 [Example 40, tert-butyl 4-(4-{4-(methylsulfonyl)phenoxy}furo[3,2-d]pyrimidin-7-yl)piperidine-1-carboxylate]",10.7 nM
21,"CC(C)(C)OC(=O)N1CCC(c2coc3c(Oc4ccc(-n5cnnn5)cc4)ncnc23)CC1 [Example 41, tert-butyl 4-{4-[4-(1H-tetrazol-1-yl)phenoxy]furo[3,2-d]pyrimidin-7-yl}piperidine-1-carboxylate]",42.9 nM
